Laboratory results reported in patent publication US10662174B2, “BTK inhibitor” (Hubei Bio-Pharmaceutical Industrial Technological Institute …, priority 2015, dated 2020).

Target: T1, BTK kinase (Homo sapiens, UniProt Q06187)
T1 construct: purchased Invitrogen PR5442A
Test: Assay of inhibition activity of BTK in vitro (HTRF kit, read on Envision)
Format: biochemical
Details: not given
Description: Assay of Inhibition Activity of BTK In Vitro
The inhibition of compounds on BTK kinase was evaluated by […] detected by Envision, using the IC50 value of the compounds as index.
BTK kinase: Invitrogen-PR5442A
HTRF Assay Kit: Cisbio-62TKOPEJ
Plate for compound preparation: Greiner-781280
Cisbio HTRF Kit: Cisbio-62TKOPEJ
Centrifuge: Eppendorf-5810R
Bravo: Agilent Technologies-Bravo
Gradient Dilution of Compounds: […]
The test compound was dissolved with DMSO to be of 1 mM as a stock solution. Such a stock solution was diluted with DMSO by 10-fold, thereby obtaining an initial solution in a concentration of […] which was added into wells at the second column in a plate. 20 μL DMSO was added to other wells using Bravo. Then, 10 μL of the initial solution was transferred from wells at the second column to wells at the third column, followed by mixing obtained solution in the wells at the third column, thereby obtain a first diluted solution in a concentration of 1/3 μM. Subsequently, 10 μL of the first diluted solution was further transferred from wells at the third column to wells at the fourth column, followed by mixing obtained solution in the wells at the fourth column, thereby obtain a second diluted solution in a concentration of 1/9 μM. Such a three-fold serial dilution was performed 10 times, with 11 solutions in series diluted concentrations and a final diluted solution in a concentration of 0.017 nM obtained.
All diluted solutions were further diluted by 25-fold with ultrapure water, thus obtain test solutions, which were equilibrated at r.t. for 30 min before use.
To 2.5 μL of test solution, which was pipetted into each well of Assay plate using Bravo, 5 μL kinase mixture was added using the multi-channel pipettor. The mixture was centrifuged at 1000 rpm for 20 s, followed by incubation at 23° C. for 30 min. The reaction was initiated by 2.5 μL ATP mixture which was pipetted into the wells by Multidrop.
The reaction mixture of BTK kinase (10 μL) included 1.0 nM BTK, 1 μM biotin-TK1 peptide and 20 μM ATP. The reaction buffer included 50 mM Hepes (pH7.5), 10 mM MgCl2 and 0.01 mM […]. The kinase mixture was reacted in incubator at 23° C. for 90 mim.
The reaction was stopped by adding 10 μL Detection Reagent to each well of Assay plate, and the plate was left in incubator at 23° C. for 1 h before read on Envision.
Data analysis: The IC50 values of compounds were calculated using Excel fit.

T1 sequence (Q06187 whole entry): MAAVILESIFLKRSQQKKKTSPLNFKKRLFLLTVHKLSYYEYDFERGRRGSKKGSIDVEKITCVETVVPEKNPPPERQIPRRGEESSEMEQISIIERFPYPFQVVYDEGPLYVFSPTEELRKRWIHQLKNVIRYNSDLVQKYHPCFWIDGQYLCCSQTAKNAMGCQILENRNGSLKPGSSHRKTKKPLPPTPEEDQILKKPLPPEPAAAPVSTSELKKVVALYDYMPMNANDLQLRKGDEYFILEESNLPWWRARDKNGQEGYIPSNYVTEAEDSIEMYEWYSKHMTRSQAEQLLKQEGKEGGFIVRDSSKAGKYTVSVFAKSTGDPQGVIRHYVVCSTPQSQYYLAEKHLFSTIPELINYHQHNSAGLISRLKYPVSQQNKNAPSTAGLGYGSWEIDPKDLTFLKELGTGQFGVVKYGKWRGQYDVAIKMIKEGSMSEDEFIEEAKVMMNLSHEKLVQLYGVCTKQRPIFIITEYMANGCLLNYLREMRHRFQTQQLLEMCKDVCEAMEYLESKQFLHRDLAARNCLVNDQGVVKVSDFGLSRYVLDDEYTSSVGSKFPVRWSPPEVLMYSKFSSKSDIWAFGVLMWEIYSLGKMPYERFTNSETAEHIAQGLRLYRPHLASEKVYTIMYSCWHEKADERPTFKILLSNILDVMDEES

Structure (SMILES)	IC50 [nM]
CN1CCN(C)[C@H](c2ccc(Nc3nc(-c4ccc5c(c4)c(C(=O)c4ccc(C6CC6)cc4F)cn5C)cn(C)c3=O)cc2)C1=O [Example 9]	1000 to 10000

Same assay, conditions: 1.0 nM BTK, 1 μM biotin-TK1 peptide, 20 μM ATP, 23° C., tested by Envision; read-out: BTK IC50

Structure (SMILES)	IC50 [nM]
C=CC(=O)Nc1cccc(-n2nc3c(=O)[nH]nc(N)c3c2-c2ccc(Oc3ccccc3)cc2)c1 [Example 69]	< 100
C=CC(=O)N1CCC[C@@H](n2cc(-c3ccc(Oc4ccccc4)cc3)c3c(N)n[nH]c(=O)c32)C1 [Example 53]	< 100
C=CC(=O)N(C)CCn1nc(-c2ccc(Oc3ccccc3)cc2)c2c(N)n[nH]c(=O)c21 [Example 31]	< 100
C=CC(=O)N1CCCC(n2nc(-c3ccc(Oc4ccccc4F)cc3)c3c(N)n[nH]c(=O)c32)C1 (centres unmarked) [Example 71]	< 100
CN(C)C/C=C/C(=O)N[C@H]1CC[C@@H](n2nc(-c3ccc(Oc4ccccn4)cc3)c3c(N)n[nH]c(=O)c32)CC1 [Example 64]	100 to 1000
C=CC(=O)N1CCCC(Nc2ncnc(N)c2C(=O)c2ccc(Oc3ccccc3)cc2Cl)C1 (centres unmarked) [Example 42]	100 to 1000
C=CC(=O)Nc1cccc2c1cnn2-c1nc(Nc2ccc(OCCOC)cc2)ncc1F [Example 13]	1000 to 10000
C=CC(=O)N1CC[C@@H](n2nc(-c3ccc(Oc4ccccc4)cc3)c3c(N)n[nH]c(=O)c32)C1 [Example 60]	< 100
C=CC(=O)N(C)[C@H]1CC[C@@H](n2nc(-c3ccc(Oc4ccccc4)cc3)c3c(N)n[nH]c(=O)c32)CC1 [Example 82]	< 100
C=CC(=O)N1CCCC(n2nc(-c3ccc(Oc4ccccc4)cc3)c3c(N)n[nH]c(=O)c32)C1 (centres unmarked) [Example 20]	< 100
C=CC(=O)N1CCC(n2nc(-c3ccc(Oc4ccccc4)cc3)c3c(N)n[nH]c(=O)c32)C1 (centres unmarked) [Example 43]	< 100
C=CC(=O)N[C@H]1CC[C@H](n2nc(-c3ccc(Oc4ccccc4)cc3)c3c(N)n[nH]c(=O)c32)CC1 [Example 63]	< 100
C=CC(=O)N1CCCC(n2nc(-c3ccc(Oc4cccc(C)c4)cc3)c3c(N)n[nH]c(=O)c32)C1 (centres unmarked) [Example 67]	1000 to 10000
COCCOc1ccc(Nc2ncc3[nH]c(CCN)nc3n2)cc1 [Example 23]	1000 to 10000
C=CS(=O)(=O)N[C@H]1CC[C@@H](n2nc(-c3ccc(Oc4ccccn4)cc3)c3c(N)n[nH]c(=O)c32)CC1 [Example 39]	< 100
C=CC(=O)N1CCCC(n2nc(-c3ccc(Oc4ccccc4)cc3)c3cc4c(N)ncnc4cc32)C1 (centres unmarked) [Example 108]	1000 to 10000
C=CC(=O)N1CCCC(n2nc(-c3ccc(Oc4cccc(F)c4)cc3)c3c(N)n[nH]c(=O)c32)C1 (centres unmarked) [Example 56]	< 100

Structure (SMILES)	IC50 [nM]
C=CC(=O)N1CCCC(n2nc(-c3ccc(Oc4ccccn4)cc3)c3c(N)n[nH]c(=O)c32)C1 (centres unmarked) [Example 68]	< 100
C=CC(=O)N1CCCC(n2nc(-c3ccc(Oc4ccc(C)cc4)cc3)c3c(N)n[nH]c(=O)c32)C1 (centres unmarked) [Example 55]	< 100
CC#CC(=O)N1CCC[C@@H](n2nc(-c3ccc(Oc4ccccc4)cc3)c3c(N)n[nH]c(=O)c32)C1 [Example 45]	< 100
C=CC(=O)N1CCCC(n2nc(-c3ccc(Oc4ccccc4)cc3)c3c(N)nn(C4CC4)c(=O)c32)C1 (centres unmarked) [Example 52]	< 100
C=CC(=O)N[C@H]1CC[C@@H](n2nc(-c3ccc(OC4CC5CC5C4)cc3)c3c(N)n[nH]c(=O)c32)CC1 (some centres unmarked) [Example 41]	< 100
C=CC(=O)N1CCCC(n2nc(-c3ccc(Oc4ccccc4)cc3)c3c(N)noc(=O)c32)C1 (centres unmarked) [Example 70]	1000 to 10000
Cc1ccn2c(=O)c(-c3cccc(-c4cc(Nc5ccc(N6CCN(C)CC6)cn5)c(=O)n(C)c4)c3C)cnc2c1 [Example 6]	1000 to 10000
CN(C)C/C=C/C(=O)N[C@H]1CC[C@@H](n2nc(-c3ccc(Oc4ccccc4)cc3)c3c(N)n[nH]c(=O)c32)CC1 [Example 59]	< 100
C=CC(=O)N1CCCC(n2nc(-c3ccc(Oc4ccccc4)cc3)c3c(N)nn(CC(F)(F)F)c(=O)c32)C1 (centres unmarked) [Example 87]	1000 to 10000
C=CC(=O)N1CCCC(n2nc(-c3ccc(Oc4ccccc4)cc3)c3c(N)nn(CCO)c(=O)c32)C1 (centres unmarked) [Example 50]	100 to 1000
CN(C)/C=C/CC(=O)N1CCCC(n2nc(-c3ccc(Oc4ccccc4)cc3)c3c(N)n[nH]c(=O)c32)C1 (centres unmarked) [Example 84]	< 100
C=CS(=O)(=O)N1CCC[C@@H](n2nc(-c3ccc(Oc4ccccc4)cc3)c3c(N)n[nH]c(=O)c32)C1 [Example 77]	< 100
C=CC(=O)N1CCC[C@H]1Cn1nc(-c2ccc(Oc3ccccc3)cc2)c2c(N)n[nH]c(=O)c21 [Example 37]	< 100
C=CC(=O)N1CCC[C@@H](Nc2ncnc(N)c2C(=O)c2ccc(N(C)c3ccccc3)cc2)C1 [Example 3]	1000 to 10000
C=CC(=O)N1CCCC(n2c(=O)c(-c3ccc(Oc4ccccc4)cc3)cc3c(N)ncnc32)C1 (centres unmarked) [Example 30]	100 to 1000
C=CC(=O)N1CCC[C@@H](Nc2cc3ncc(-c4ccc(Oc5ccccc5)cc4)c(=O)n3cn2)C1 [Example 17]	1000 to 10000
Nc1n[nH]c(=O)c2c1c(-c1ccc(Oc3ccccc3)cc1)nn2[C@@H]1CCCN(C(=O)/C=C/CN2CCOCC2)C1 [Example 36]	< 100
